Measured values reported in article PMC10991509, “A phase I study of ATR inhibitor gartisertib (M4344) as a single agent and in combination with carboplatin in patients with advanced solid tumours” (British Journal of Cancer, 2024).
Read-outs that look alike come from different tables or passages of the source.

Tests used:
[1] = Plasma pharmacokinetics of gartisertib; format: in vivo, human; conditions: for clearance: read-out: drug clearance
Text: (§1) The secondary objectives for cohorts A, A2, and B1 were to assess antitumour activity and PK. Endpoints associated with antitumour activity included confirmed best overall response (BOR), according to RECIST v1.1. PK endpoints included PK parameter estimates, derived from plasma concentration-time data. Please see the Supplementary Materials for details on further PK endpoints and assessments as well as the PK assessment schedule (Supplementary Table S2).
Categorical variables (such as incidence of a TEAE) were summarised using frequency counts and percentages, along with 2-sided exact Clopper–Pearson 95% confidence intervals (CIs). TEAEs observed were summarised by System Organ Class and Preferred Term according to the Medical Dictionary for Regulatory Activities (versions 23.0 and 24.0). Standard non-compartmental methods were used to determine PK parameters.
Blood samples were collected according to the Schedule of Assessments in order to measure gartisertib (and metabolites where appropriate) plasma concentrations. PK parameters included maximum observed plasma concentration (Cmax), time to reach maximum observed plasma concentration (Tmax), terminal half-life, area under the concentration–time curve (AUC) from time zero extrapolated to infinity, apparent oral clearance, and apparent volume of distribution during the terminal phase as well as Cmax and AUC accumulation ratios. Please see Table S2 for the PK assessment schedule.

advanced solid tumours = assay: Antitumour activity (RECIST v1.1); format: in vivo, human
Text: as §1
In cohort C, the primary objectives were to evaluate safety, tolerability, and antitumour activity of gartisertib monotherapy in patients with LOF mutations in ARID1A (cohort C1), ATRX and/or DAXX (cohort C2), or ATM (cohort C3). The primary endpoints included safety (treatment-emergent AEs [TEAEs] and treatment-related TEAEs; laboratory abnormalities; clinically significant abnormal vital signs; and clinically significant abnormal ECGs and antitumour activity (objective response [OR], defined as confirmed BOR of complete response [CR] or partial response [PR], according to RECIST v1.1). Secondary endpoints included duration of response; progression-free survival [PFS]) as well as PK parameter estimates of gartisertib in patients with LOF mutations. The Supplementary Materials provide further information on efficacy assessments and definitions.
In cohorts A, A2, B1, and C, antitumor activity was assessed in patients with measurable disease with standard criteria (Response Evaluation Criteria in Solid Tumors version 1.1 [RECIST v1.1]). In patients with prostate cancer, Prostate Cancer Clinical Trials Working Group 2 (PCWG2) criteria were used. Patients underwent an imaging scan at screening to document extent of initial disease and in all cohorts of the study, patients underwent repeat imaging scans. Imaging scans were locally assessed for all study cohorts. Bone scans were performed as were evaluations of serum […] in patients with ovarian cancer and serum prostate-specific antigen in patients with prostate cancer.
In addition, for cohort C, tumor assessments according to RECIST v1.1 were performed at baseline and at completion of every two cycles of treatment for the first six cycles and then every three cycles thereafter until disease progression or initiation of a new anticancer therapy line. Objective response, best overall response, duration of response and progression-free survival will be determined by the investigator based on these tumor assessments, with objective responses needing to be confirmed at a scan no fewer than 4 weeks after the original evaluation. Independent review may be performed if necessary.
Objective response was defined as a confirmed assessment of complete response or partial response by the investigator using RECIST v1.1. Confirmed best overall response was defined as the best confirmed response from start of treatment. Tumor assessments performed after start of further anticancer treatment line were not used to determine best overall response. Progression-free survival was defined as the time between the start of study treatment to progressive disease (PD) or death (in case PD is not observed prior to death).

Nc1nn2cc(F)cnc2c1C(=O)Nc1cncc(F)c1N1CCC(C(=O)N2CCN(C3COC3)CC2)CC1 [gartisertib, Gartisertib]
accumulation following multiple gartisertib doses ([1]; cohort A): less than 2 fold
urinary excretion of gartisertib ([1]; cohort A2): minor route of elimination
time median plasma concentrations remained above the lower limit of quantification (1.00 ng/mL) ([1]; cohort A2, 250 mg dose): ≤ 24 h
time median plasma concentrations remained above the lower limit of quantification (1.00 ng/mL) ([1]; cohort A2, doses other than 250 mg): up to 8 hours
accumulation compared with day 1 ([1]; cohort A, 450 mg dose): no accumulation
accumulation of AUC0-t at day 8 compared with day 1 ([1]; cohort A, 1200 mg dose group): 1.9 fold
accumulation of Cmax at day 8 compared with day 1 ([1]; cohort A, 1200 mg dose group): 1.6 fold
time of peak median plasma gartisertib concentration ([1]; cohort A, 1200 mg group): 4 hours post dose
time median gartisertib concentrations remained above the lowest level of quantification (1.00 ng/mL) ([1]; cohort A, 450, 700, 1050 and 1200 mg groups): up to 24 hours post dose
exposure (Cmax and AUC) versus dose ([1]; cohorts A, A2, and B1, high variability): dose-proportional exposure
clearance ([1]; human, plasma, oral, cohort A2, day 1): 3450 to 8580 mL/min
clearance ([1]; human, plasma, oral, cohort A2, day 8): 3980 to 7070 mL/min
half-life ([1]; human, plasma, oral, cohorts A, A2, and B1, read-out: half-life (t1/2)): 2 to 5 h
half-life ([1]; human, plasma, oral, cohort A, four highest dose levels, read-out: geometric mean terminal half-life): 2.22 to 4.61 h
Vd ([1]; human, plasma, oral, cohort A, four highest dose levels, read-out: volume of distribution based on the terminal elimination phase following extravascular administration): 1480 to 4060 L
cBOR Not evaluable (advanced solid tumours; Cohort A2, 100 mg BID (N=7)): 2 (28.6) n patients (%)
cBOR Partial response (advanced solid tumours; Cohort A2, 100 mg BID (N=7)): 0 (0.0) n patients (%)
cBOR Progressive disease (advanced solid tumours; Cohort A2, 100 mg BID (N=7)): 4 (57.1) n patients (%)
cBOR Stable disease (advanced solid tumours; Cohort A2, 100 mg BID (N=7)): 1 (14.3) n patients (%)
cBOR Not evaluable (advanced solid tumours; Cohort A2, 150 mg QD (N=4)): 0 (0.0) n patients (%)
cBOR Partial response (advanced solid tumours; Cohort A2, 150 mg QD (N=4)): 0 (0.0) n patients (%)
cBOR Progressive disease (advanced solid tumours; Cohort A2, 150 mg QD (N=4)): 3 (75.0) n patients (%)
cBOR Stable disease (advanced solid tumours; Cohort A2, 150 mg QD (N=4)): 1 (25.0) n patients (%)
cBOR Not evaluable (advanced solid tumours; Cohort A2, 250 mg QD (N=7)): 0 (0.0) n patients (%)
cBOR Partial response (advanced solid tumours; Cohort A2, 250 mg QD (N=7)): 0 (0.0) n patients (%)
cBOR Progressive disease (advanced solid tumours; Cohort A2, 250 mg QD (N=7)): 3 (42.9) n patients (%)
cBOR Stable disease (advanced solid tumours; Cohort A2, 250 mg QD (N=7)): 4 (57.1) n patients (%)
cBOR Not evaluable (advanced solid tumours; Cohort A2, 350 mg QD (N=5)): 0 (0.0) n patients (%)
cBOR Partial response (advanced solid tumours; Cohort A2, 350 mg QD (N=5)): 0 (0.0) n patients (%)
cBOR Progressive disease (advanced solid tumours; Cohort A2, 350 mg QD (N=5)): 3 (60.0) n patients (%)
cBOR Stable disease (advanced solid tumours; Cohort A2, 350 mg QD (N=5)): 2 (40.0) n patients (%)
cBOR Not evaluable (advanced solid tumours; Cohort A, 10 mg BIW (N=1)): 1 (100.0) n patients (%)
cBOR Partial response (advanced solid tumours; Cohort A, 10 mg BIW (N=1)): 0 (0.0) n patients (%)
cBOR Progressive disease (advanced solid tumours; Cohort A, 10 mg BIW (N=1)): 0 (0.0) n patients (%)
cBOR Stable disease (advanced solid tumours; Cohort A, 10 mg BIW (N=1)): 0 (0.0) n patients (%)
cBOR Not evaluable (advanced solid tumours; Cohort A, 20 mg BIW (N=1)): 0 (0.0) n patients (%)
cBOR Partial response (advanced solid tumours; Cohort A, 20 mg BIW (N=1)): 0 (0.0) n patients (%)
cBOR Progressive disease (advanced solid tumours; Cohort A, 20 mg BIW (N=1)): 0 (0.0) n patients (%)
cBOR Stable disease (advanced solid tumours; Cohort A, 20 mg BIW (N=1)): 1 (100.0) n patients (%)
cBOR Not evaluable (advanced solid tumours; Cohort A, 40 mg BIW (N=1)): 0 (0.0) n patients (%)
cBOR Partial response (advanced solid tumours; Cohort A, 40 mg BIW (N=1)): 0 (0.0) n patients (%)
cBOR Progressive disease (advanced solid tumours; Cohort A, 40 mg BIW (N=1)): 1 (100.0) n patients (%)
cBOR Stable disease (advanced solid tumours; Cohort A, 40 mg BIW (N=1)): 0 (0.0) n patients (%)
cBOR Not evaluable (advanced solid tumours; Cohort A, 80 mg BIW (N=1)): 0 (0.0) n patients (%)
cBOR Partial response (advanced solid tumours; Cohort A, 80 mg BIW (N=1)): 0 (0.0) n patients (%)
cBOR Progressive disease (advanced solid tumours; Cohort A, 80 mg BIW (N=1)): 1 (100.0) n patients (%)
cBOR Stable disease (advanced solid tumours; Cohort A, 80 mg BIW (N=1)): 0 (0.0) n patients (%)
cBOR Not evaluable (advanced solid tumours; Cohort A, 160 mg BIW (N=1)): 0 (0.0) n patients (%)
cBOR Partial response (advanced solid tumours; Cohort A, 160 mg BIW (N=1)): 0 (0.0) n patients (%)
cBOR Progressive disease (advanced solid tumours; Cohort A, 160 mg BIW (N=1)): 1 (100.0) n patients (%)
cBOR Stable disease (advanced solid tumours; Cohort A, 160 mg BIW (N=1)): 0 (0.0) n patients (%)
cBOR Not evaluable (advanced solid tumours; Cohort A, 300 mg BIW (N=1)): 0 (0.0) n patients (%)
cBOR Partial response (advanced solid tumours; Cohort A, 300 mg BIW (N=1)): 0 (0.0) n patients (%)
cBOR Progressive disease (advanced solid tumours; Cohort A, 300 mg BIW (N=1)): 1 (100.0) n patients (%)
cBOR Stable disease (advanced solid tumours; Cohort A, 300 mg BIW (N=1)): 0 (0.0) n patients (%)
cBOR Not evaluable (advanced solid tumours; Cohort A, 450 mg BIW (N=3)): 0 (0.0) n patients (%)
cBOR Partial response (advanced solid tumours; Cohort A, 450 mg BIW (N=3)): 0 (0.0) n patients (%)
cBOR Progressive disease (advanced solid tumours; Cohort A, 450 mg BIW (N=3)): 1 (33.3) n patients (%)
cBOR Stable disease (advanced solid tumours; Cohort A, 450 mg BIW (N=3)): 2 (66.7) n patients (%)
cBOR Not evaluable (advanced solid tumours; Cohort A, 700 mg BIW (N=6)): 2 (33.3) n patients (%)
cBOR Partial response (advanced solid tumours; Cohort A, 700 mg BIW (N=6)): 0 (0.0) n patients (%)
cBOR Progressive disease (advanced solid tumours; Cohort A, 700 mg BIW (N=6)): 2 (33.3) n patients (%)
cBOR Stable disease (advanced solid tumours; Cohort A, 700 mg BIW (N=6)): 2 (33.3) n patients (%)
cBOR Not evaluable (advanced solid tumours; Cohort A, 1050 mg BIW (N=7)): 1 (14.3) n patients (%)
cBOR Partial response (advanced solid tumours; Cohort A, 1050 mg BIW (N=7)): 0 (0.0) n patients (%)
cBOR Progressive disease (advanced solid tumours; Cohort A, 1050 mg BIW (N=7)): 5 (71.4) n patients (%)
cBOR Stable disease (advanced solid tumours; Cohort A, 1050 mg BIW (N=7)): 1 (14.3) n patients (%)
cBOR Not evaluable (advanced solid tumours; Cohort A, 1200 mg BIW (N=4)): 2 (50.0) n patients (%)
cBOR Partial response (advanced solid tumours; Cohort A, 1200 mg BIW (N=4)): 0 (0.0) n patients (%)
cBOR Progressive disease (advanced solid tumours; Cohort A, 1200 mg BIW (N=4)): 1 (25.0) n patients (%)
cBOR Stable disease (advanced solid tumours; Cohort A, 1200 mg BIW (N=4)): 1 (25.0) n patients (%)
cBOR Not evaluable (advanced solid tumours; Cohort C, 250 mg QD (N=13)): 2 (15.4) n patients (%)
cBOR Partial response (advanced solid tumours; Cohort C, 250 mg QD (N=13)): 0 (0.0) n patients (%)
cBOR Progressive disease (advanced solid tumours; Cohort C, 250 mg QD (N=13)): 8 (61.5) n patients (%)
cBOR Stable disease (advanced solid tumours; Cohort C, 250 mg QD (N=13)): 3 (23.1) n patients (%)
BOR of SD (advanced solid tumours; cohort A2 (full analysis set 23)): 34.8%
BOR of SD (advanced solid tumours; cohort A (full analysis set 26)): 26.9%
BOR of SD (advanced solid tumours; cohort C (full analysis set 13)): 23.1%
median PFS interval (advanced solid tumours; cohort C, 95% CI 0.8, 2.1): 1.6 months
disease control according to selected biomarker status (ARID1A, ATRX/DAXX, ATM) (advanced solid tumours; cohorts A2 and C): No difference in disease control
patients with SD for >6 months (advanced solid tumours; three patients across all study cohorts): 3.1%
